From patent publication US12662505B2, “Steviol glycoside solubility enhancers” (CARGILL, INCORPORATED, priority 2019, dated 2026)

Tests used:
[1] = type: physicochemical
Experimental: Clear solutions without precipitates are considered soluble. Unless indicated otherwise herein, the term “solubility” refers to “equilibrium solubility.”
Upon heating to 80° C. for 15 minutes, rebaudioside D has an equilibrium solubility of 0.08% for at least four days at room temperature.

[2] = sensory evaluation; cited from earlier work

C=C1C[C@@]23CC[C@H]4[C@@](C)(CCC[C@@]4(C)C(=O)O[C@@H]4O[C@H](CO)[C@@H](O)[C@H](O)[C@H]4O[C@@H]4O[C@H](CO)[C@@H](O)[C@H](O)[C@H]4O)[C@@H]2CC[C@]1(O[C@@H]1O[C@H](CO)[C@@H](O)[C@H](O[C@@H]2O[C@H](CO)[C@@H](O)[C@H](O)[C@H]2O)[C@H]1O[C@@H]1O[C@H](CO)[C@@H](O)[C@H](O)[C@H]1O)C3 [Rebaudioside D]
equilibrium solubility [1]: 0.08%
instantaneous solubility [1]: less than 0.08%
sweetness relative to sucrose [2]: 200-220 times sweeter than sucrose

C=C1C[C@@]23CC[C@H]4[C@@](C)(CCC[C@@]4(C)C(=O)O[C@@H]4O[C@H](CO)[C@@H](O)[C@H](O[C@@H]5O[C@H](CO)[C@@H](O)[C@H](O)[C@H]5O)[C@H]4O[C@@H]4O[C@H](CO)[C@@H](O)[C@H](O)[C@H]4O)[C@@H]2CC[C@]1(O[C@@H]1O[C@H](CO)[C@@H](O)[C@H](O[C@@H]2O[C@H](CO)[C@@H](O)[C@H](O)[C@H]2O)[C@H]1O[C@@H]1O[C@H](CO)[C@@H](O)[C@H](O)[C@H]1O)C3 [Rebaudioside M]
equilibrium solubility [1]: about 0.2%
instantaneous solubility [1]: about 0.13%
